Test results from US7666617B2, “Devices and methods for profiling enzyme substrates” (University of Maryland, Baltimore County, priority 2005, dated 2010).

Experiments:
endogenous kinase NM23 = assay: Endogenous NM23 kinase signal (internal control) in the CK2α reverse in-gel kinase assay; conditions: 75 μM apigenin in assay buffer; LNCaP lysate
Protocol: 300 μg of LNCaP lysate was treated with bacteriophage λ phosphatase at 30° C. for 1 hour. The lysate was then precipitated with TCA, resolublized in IEF rehydration buffer and applied to CKα reverse in-gel kinase assay with 25 μg of recombinant human CK2α cast in the gel. 75 μM apigenin was added in the reverse in-gel kinase assay buffer and a parallel assay was performed with same volume of vehicle (DMSO) added to the reaction buffer.

Protein Kinase A (PKA) = assay: PKA RIKA of TBB-treated LNCaP cell extract; format: cell-based; conditions: TBB-treated vs vehicle-treated LNCaP lysate; RIKA gel with 50 μg/ml recombinant PKA
Protocol: FIG. 8A-8B, an equivalent mass of protein used for the RIKA shown in FIGS. 7A-7E was applied to a RIKA gel containing 50 μg/ml recombinant PKA. Arrows designates the activity of the endogenous kinase NM23 H1 which serves as an internal control. FIG. 8A is an autoradiogram of the PKA RIKA using the vehicle-treated lysates.

effect on endogenous kinase NM23 signal (endogenous kinase NM23) | Compound | signal intensity of proteins detected in PKA RIKA, TBB-treated extract (Protein Kinase A (PKA))
not affected | O=c1cc(-c2ccc(O)cc2)oc2cc(O)cc(O)c12 [Apigenin, apigenin] | 
 | Brc1c(Br)c(Br)c2[nH]nnc2c1Br [TBB, 4,5,6,7 tetrabromobenzotriazole] | No increase
